# Source: PMC10353390, “Biological and Structural Analyses of New Potent Allosteric Inhibitors of HIV-1 Integrase” (Antimicrobial Agents and Chemotherapy, 2023)
# Read-outs that look alike come from different tables or passages of the source.
# What was measured:
# [1] = target: T1, HIV-1 IN (Human immunodeficiency virus type 1 group M subtype B, UniProt P12497); test: HTRF IN multimerization assay; format: biochemical; details: mean ± SD
# T1 construct: made in house
# From the text: A key property of INLAIs is the ability to promote HIV-1 IN homo-multimerization ([39][–][42]). […] The maximal signal (plateau) in our IN aggregation assay corresponds to the highest HTRF signal increase under saturating INLAI concentration, relative to baseline level. Thus, MUT916, MUT884, MUT871, and MUT872 increased HIV-1 IN aggregation 3.7 to 4.4-fold, while BDM-2, BI-224436, and S-I-82 did so 5 to 6-fold (Table 1).
# [2] = system: HXB2 HIV-1 strain; test: Multiple-round infection assay in MT4 cells, HXB2; format: cell-based; details: Human immunodeficiency virus 1, HXB2; multiple-round infection, MT4 cells; mean ± SD, n > 5; read-out: EC50 HXB2
# In short: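 MT4 cells at 10^6/mL were infected with HIV-1 at MOI 0.001 for 2 h in the presence of compound dilutions. Cell viability, measured by CellTiter-Glo luminescence, served as the read-out of protection in this multiple-round infection.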
# [3] = system: NL4-3 HIV-1 strain; test: Multiple-round infection assay in MT4 cells, NL4-3; format: cell-based; details: MT4 cells
# [4] = Cytotoxicity assay in MT4 cells; format: cell-based; details: human, MT4 cells (proliferating human T-cell line), CellTiter-Glo
# From the text: Growth inhibition was monitored in a proliferating human T-cell line (MT4) with different concentrations of compounds, using the CellTiter-Glo luminescent reagent (Promega), as previously described ([12]).
# [5] = system: lab-adapted and clinical HIV-1 isolates; test: Infection assays in primary T CD4+ lymphocytes; format: cell-based; details: Human immunodeficiency virus 1, Lymphocyte
# [6] = system: VSV-G-pseudotyped NL4-3Δenv-luc; test: microbe, parasite or virus in culture; format: cell-based, HIV-1; details: Human immunodeficiency virus 1, NL43, MT4, read-out: EC50 in single-round infection
# [7] = system: recombinant NL4-3 viruses with polymorphisms at IN positions 124 and 125; test: Multiple-round infection of MT4 cells with recombinant NL4-3 viruses polymorphic at IN positions 124 and 125; format: cell-based, HIV-1
# In short: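 MT4 cells (10^6/mL) infected with NL4-3 carrying IN 124/125 polymorphisms (15 combinations) at MOI 0.001 for 2 h with compound present. Viability read by CellTiter-Glo luminescence; EC50 expressed as fold change versus wild-type NL4-3 (Thr124/Thr125).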
# [8] = system: primary HIV-1 isolates with polymorphisms at IN positions 124 and 125; test: Multiple-round infection of MT4 cells with primary HIV-1 isolates polymorphic at IN positions 124 and 125; format: cell-based; details: primary isolate
# In short: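 Exponentially growing MT4 cells at 10^6/mL infected for 2 h at MOI 0.001 in the presence of varying compound concentrations. Cell viability quantified by CellTiter-Glo luminescence.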
# [9] = system: HIV-1 strains resistant to INSTIs, NRTIs, NNRTIs or PIs; format: cell-based
# In short: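 NL4-3-based recombinant mutants and drug-resistant clinical isolates; exponentially growing MT4 cells (10^6/mL) infected at MOI 0.001 for 2 h with compound at varying concentrations. Protection quantified as cell viability by CellTiter-Glo luminescence.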
# [10] = system: NL4-3 HIV-1 with INLAI-selected IN single point mutations; format: cell-based
# [11] = target: HIV-1 IN-LEDGF/p75 interaction (Human immunodeficiency virus type 1 group M subtype B, UniProt P12497); test: biochemical
# Method: The INLAIs were tested for the ability to inhibit the HIV-1 IN-LEDGF/p75 interaction in a homogeneous time-resolved fluorescence (HTRF) assay. Our assays used either full-length IN and LEDGF/p75 proteins or their respective minimally sufficient interaction domains: the CCD of HIV-1 IN and the IBD of LEDGF/p75 (Table 1).
# HTRF-based CCD-IBD interaction, IN-LEDGF/p75 interaction and IN multimerization assays were performed as described previously ([12]).
# [12] = target: CCD of HIV-1 IN and IBD of LEDGF/p75 (Human immunodeficiency virus type 1 group M subtype B, UniProt P12497); test: biochemical
# [13] = INSTI-resistant, NL4-3 background
# [14] = INSTI-resistant, primary patient-derived strain
compound,measurement,setting,value
"Cc1nc2ccccc2c(-c2ccc3c4c(ccnc24)CCO3)c1[C@H](OC(C)(C)C)C(=O)O [BI-224436, reference compound]",AC50,[1]; concentration for 50% maximum activation of multimerization,34 ± 11 nM
same,IN multimerization Plateau,[1]; maximum multimerization reached versus baseline,670 ± 210%
same,EC50,[2],23 ± 8.4 nM
same,EC90,"[3]; Human immunodeficiency virus 1, NL43, multiple-round infection, from dose response curves, read-out: EC90 NL4-3",77 ± 34 nM
same,EC50,"[3]; Human immunodeficiency virus 1, NL43, multiple-round infection, mean ± SD, n > 5, read-out: EC50 NL4-3",51 ± 17 nM
same,Selectivity index CC50/EC50 NL4-3,[3],">3,921"
same,CC50,[4],> 200000 nM
same,EC50,[5]; read-out: EC50 33913N (B),20 ± 9 nM
same,EC50,[5]; read-out: EC50 HXB2 (B),14 ± 7 nM
same,EC50,[5]; read-out: EC50 KER2008 (A),37 ± 12 nM
same,EC50,[5]; read-out: EC50 NL4-3 (B),100 ± 80 nM
same,EC50,[5]; read-out: EC50 NP1525 (CRF01_AE),61 ± 35 nM
same,EC50,[5]; read-out: EC50 NP1538 (B),66 ± 42 nM
same,EC50,[6],1400 ± 300 nM
same,"Fold change in EC50 relative to parental NL4-3, AA","[7]; recombinant NL4-3, IN 124/125 AA",1
same,"Fold change in EC50 relative to parental NL4-3, AM","[7]; recombinant NL4-3, IN 124/125 AM",0.4
same,"Fold change in EC50 relative to parental NL4-3, AT","[7]; recombinant NL4-3, IN 124/125 AT",1
same,"Fold change in EC50 relative to parental NL4-3, AV","[7]; recombinant NL4-3, IN 124/125 AV",1
same,"Fold change in EC50 relative to parental NL4-3, GA","[7]; recombinant NL4-3, IN 124/125 GA",1
same,"Fold change in EC50 relative to parental NL4-3, GT","[7]; recombinant NL4-3, IN 124/125 GT",2
same,"Fold change in EC50 relative to parental NL4-3, NA","[7]; recombinant NL4-3, IN 124/125 NA",1
same,"Fold change in EC50 relative to parental NL4-3, NT","[7]; recombinant NL4-3, IN 124/125 NT",1
same,"Fold change in EC50 relative to parental NL4-3, NV","[7]; recombinant NL4-3, IN 124/125 NV",1
same,"Fold change in EC50 relative to parental NL4-3, SA","[7]; recombinant NL4-3, IN 124/125 SA",1
same,"Fold change in EC50 relative to parental NL4-3, ST","[7]; recombinant NL4-3, IN 124/125 ST",1
same,"Fold change in EC50 relative to parental NL4-3, TA","[7]; recombinant NL4-3, IN 124/125 TA",1
same,"Fold change in EC50 relative to parental NL4-3, TM","[7]; recombinant NL4-3, IN 124/125 TM",0.4
same,"Fold change in EC50 relative to parental NL4-3, TV","[7]; recombinant NL4-3, IN 124/125 TV",1
same,"Fold change in EC50 relative to parental NL4-3, CAM2BBY (CRF02)",[8]; IN 124/125 AA,2
same,"Fold change in EC50 relative to parental NL4-3, E0836M4 (D)",[8]; IN 124/125 AA,1
same,"Fold change in EC50 relative to parental NL4-3, KER2008 (A)",[8]; IN 124/125 AA,1
same,"Fold change in EC50 relative to parental NL4-3, NP1525 (CRF01)",[8]; IN 124/125 AA,1
same,"Fold change in EC50 relative to parental NL4-3, NP1695 (CRF02)",[8]; IN 124/125 AA,2
same,"Fold change in EC50 relative to parental NL4-3, TZA125 (C)",[8]; IN 124/125 AA,0.5
same,"Fold change in EC50 relative to parental NL4-3, KSM4030 (A)",[8]; IN 124/125 GA,1
same,"Fold change in EC50 relative to parental NL4-3, vGA (C)",[8]; IN 124/125 GA,2
same,"Fold change in EC50 relative to parental NL4-3, 99ET14 (C)",[8]; IN 124/125 NA,1
same,"Fold change in EC50 relative to parental NL4-3, NP1538 (B)",[8]; IN 124/125 NA,1
same,"Fold change in EC50 relative to parental NL4-3, vNA_1 (B)",[8]; IN 124/125 NA,2
same,"Fold change in EC50 relative to parental NL4-3, vNA_2 (CRF02)",[8]; IN 124/125 NA,2
same,"Fold change in EC50 relative to parental NL4-3, vNV (B)",[8]; IN 124/125 NV,1
same,"Fold change in EC50 relative to parental NL4-3, vSA_1 (B)",[8]; IN 124/125 SA,3
same,"Fold change in EC50 relative to parental NL4-3, vSA_2 (CRF02)",[8]; IN 124/125 SA,2
same,"Fold change in EC50 relative to parental NL4-3, vTA_1 (B)",[8]; IN 124/125 TA,2
same,"Fold change in EC50 relative to parental NL4-3, vTA_2 (CRF02)",[8]; IN 124/125 TA,2
same,"Fold change in EC50 relative to NL4-3, E92Q",[9]; [13],1
same,"Fold change in EC50 relative to NL4-3, G140S",[9]; [13],1
same,"Fold change in EC50 relative to NL4-3, G140S/Q148H",[9]; [13],1
same,"Fold change in EC50 relative to NL4-3, N155H",[9]; [13],1
same,"Fold change in EC50 relative to NL4-3, Q148H",[9]; [13],1
same,"Fold change in EC50 relative to NL4-3, Y143R",[9]; [13],1
same,"Fold change in EC50 relative to NL4-3, E92Q/N155H (pat.)",[9]; [14],1
same,"Fold change in EC50 relative to NL4-3, G140S/Q148H (pat.)",[9]; [14],1
same,"Fold change in EC50 relative to NL4-3, T97A/N155H (pat.)",[9]; [14],1
same,"Fold change in EC50 relative to NL4-3, NLAY351717",[9]; NRTI-resistant clone,1
same,"Fold change in EC50 relative to NL4-3, NLAY351753",[9]; NRTI/NNRTI-resistant clone,1
same,"Fold change in EC50 relative to NL4-3, K103N/Y181C","[9]; NRTI/NNRTIs group, NL4-3 background",1
same,"Fold change in EC50 relative to NL4-3, ARP-4595",[9]; PI-resistant virus,0.4
same,"Fold change in EC50 relative to NL4-3, ARP-4596",[9]; PI-resistant virus,0.5
same,"Fold change in EC50 relative to NL4-3, ARP-11801",[9]; PI-resistant virus,1
same,"Fold change in EC50 relative to NL4-3, ARP-11803",[9]; PI-resistant virus,1
same,"Fold change in EC50 relative to NL4-3, ARP-11807",[9]; PI-resistant virus,1
same,"Fold change in EC50 relative to NL4-3, ARP-11808",[9]; PI-resistant virus,1
same,"EC50 fold change compared to wild type NL4-3, A128T",[10],6
same,"EC50 fold change compared to wild type NL4-3, H171Q",[10],4
same,"EC50 fold change compared to wild type NL4-3, N222K",[10],2
same,"EC50 fold change compared to wild type NL4-3, T174I",[10],706
same,"EC50 fold change compared to wild type NL4-3, Y99H",[10],2
same,IC50,[11],90 ± 19 nM
same,IC50,[12],73 ± 13 nM
